# US4309559A, “Sulphonamides useful as pesticides” (FBC Limited, priority 1977, dated 1982)
# Legend:
# Type in all cases: in vivo
# [1] = tested on: Ryegrass (Lolium perenne); assay: Soil incorporation (attaclay/sand dust), growth regulatory or herbicidal effects, ryegrass; conditions: 504 h, 21 days, 0=no effect, read-out: growth regulatory or herbicidal effect score; for pest or weed control at 26 µg/mL: soil incorporation 26 ppm, 100=complete kill
# How it was run: (§1)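 Dust-formulated compound incorporated in potting compost, 26 or 130 ppm w/v; seeds sown, watered, 21 d at 22° C, 65-85% RH, 14 h/day 13,000 lux. Visual growth-regulatory/herbicidal score 0 (no effect) to 100 (complete kill) vs untreated.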
# Peas (Pisum sativum) [2] = assay: Soil incorporation (attaclay/sand dust), growth regulatory or herbicidal effects, peas; conditions: Lathyrus oleraceus, 504 h, 21 days, 0=no effect, read-out: growth regulatory or herbicidal effect score; for pest or weed control at 26 µg/mL: soil incorporation 26 ppm, 100=complete kill
# How it was run: as §1
# Peas (Pisum sativum) [3] = assay: Post-emergence foliar spray, herbicidal/growth regulant response, peas; conditions: Lathyrus oleraceus, 168 h, foliar spray 11.2 kg/ha, 7 days, 0=no effect, 100=complete kill, read-out: herbicidal or growth regulant response index
# How it was run: (§2)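 Test compound, dissolved in 1:1 by volume aqueous acetone, is applied as a foliar spray equivalent to 11.2 kg/ha in 450 L/ha to seedlings two weeks after sowing. Responses are rated visually after one week on a 0–100 kill scale.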
# Fathen = assay: Soil incorporation (I), fathen; conditions: I soil incorporation 6.5 ppm, 21 days, 0=no effect, 100=complete suppression
# Description: (§3) Each of the compounds listed below was formulated as: […]
# (§4) (I) an attaclay/sand dust and incorporated in John Innes I potting compost at a rate equivalent to 6.5 and 3.25 parts per million weight/volume of active ingredient to soil and placed in anodised aluminium pans, 19 cm long×9.5 cm wide×5.0 cm high. This is approximately equivalent to a surface application of 2.8 and 1.4 kg active ingredient per hectare cultivated to a depth of 5 cm. Seeds of the species listed below were sown in the treated soil, one species per pan, watered and placed in a controlled environment room (22° C.; 65-85% relative humidity and 14 hours artificial illumination at 17,000 lux) for 21 days.
# (§5) The plants were then visually assessed for any growth regulatory or herbicidal effects. All differences from an untreated control were scored on a scale from 0-100, where 0 signifies no effect and 100 signifies complete suppression.
# (§6) The results are shown in the following table where I stands for soil incorporation and II for surface spray.
# Mustard (Sinapis alba) [4] = assay: Post-emergence foliar spray, herbicidal/growth regulant response, mustard; conditions: 168 h, foliar spray 11.2 kg/ha, 7 days, 0=no effect, 100=complete kill, read-out: herbicidal or growth regulant response index
# How it was run: as §2
# Oat (Avena sativa) = assay: Post-emergence foliar spray, herbicidal/growth regulant response, oat; conditions: 168 h, foliar spray 11.2 kg/ha, 7 days, 0=no effect, 100=complete kill, read-out: herbicidal or growth regulant response index
# How it was run: as §2
# Chickweed = assay: Soil incorporation (I), chickweed; conditions: I soil incorporation 6.5 ppm, 21 days, 0=no effect, 100=complete suppression
# Description: as §3, §4, §5, §6
# Oats (Avena sativa) = assay: Soil incorporation (attaclay/sand dust), growth regulatory or herbicidal effects, oats; conditions: 504 h, 21 days, 0=no effect, read-out: growth regulatory or herbicidal effect score; for plant injury at 26 µg/mL: soil incorporation 26 ppm, 100=complete kill
# How it was run: as §1
# [5] = tested on: Ryegrass (Lolium perenne); assay: Post-emergence foliar spray, herbicidal/growth regulant response, ryegrass; conditions: 168 h, foliar spray 11.2 kg/ha, 7 days, 0=no effect, 100=complete kill, read-out: herbicidal or growth regulant response index
# How it was run: as §2
# Mustard = assay: Soil incorporation (I), mustard; conditions: I soil incorporation 6.5 ppm, 21 days, 0=no effect, 100=complete suppression
# Description: as §3, §4, §5, §6
# [6] = tested on: Linseed (Linum usitatissimum); assay: Soil incorporation (attaclay/sand dust), growth regulatory or herbicidal effects, linseed; conditions: 504 h, 21 days, 0=no effect, read-out: growth regulatory or herbicidal effect score; for pest or weed control at 26 µg/mL: soil incorporation 26 ppm, 100=complete kill
# How it was run: as §1
# [7] = tested on: French beans (Phaseolus vulgaris); assay: Post-emergence foliar spray, herbicidal/growth regulant response, French beans; conditions: foliar spray 11.2 kg/ha, 7 days, 0=no effect, 100=complete kill
# Description: Seeds of the plant species listed below were sown in anodised aluminium pans, 19 cm long×9.5 cm wide×5 cm deep, containing John Innes I potting compost. They were then watered and placed in a controlled environment room (22° C.; 65-85% relative humidity; 14 hours per day artificial illumination at 13,000 lux). Fourteen days after sowing, the seedlings received a foliar spray of a compound listed below, formulated as a solution in 1:1 by volume aqueous acetone. The concentration of active ingredient and volume of application were adjusted so as to be equivalent to a rate of 11.2 kg/ha in 450 liters per hectare. After seven days growth in the controlled environment room, the plants were visually assessed for any herbicidal or growth regulant response. All differences from the untreated control were scored according to an index where 0=no effect and 100=complete kill.
# The product of Example 95 was tested according to the procedure of Examples 49-55.
# Tomato = assay: Soil incorporation (I), tomato; conditions: I soil incorporation 6.5 ppm, 21 days, 0=no effect, 100=complete suppression
# Description: as §3, §4, §5, §6
# Carrot = assay: Soil incorporation (I), carrot; conditions: I soil incorporation 6.5 ppm, 21 days, 0=no effect, 100=complete suppression
# Description: as §3, §4, §5, §6
# Maize (Zea mays) = assay: Soil incorporation (attaclay/sand dust), growth regulatory or herbicidal effects, maize; conditions: 504 h, 21 days, 0=no effect, read-out: growth regulatory or herbicidal effect score; for plant injury at 26 µg/mL: soil incorporation 26 ppm, 100=complete kill
# How it was run: as §1
# Cotton = assay: Soil incorporation (I), cotton; conditions: I soil incorporation 6.5 ppm, 21 days, 0=no effect, 100=complete suppression
# Description: as §3, §4, §5, §6
# Mustard (Sinapis alba) [8] = assay: Soil incorporation (attaclay/sand dust), growth regulatory or herbicidal effects, mustard; conditions: 504 h, 21 days, 0=no effect, read-out: growth regulatory or herbicidal effect score; for pest or weed control at 26 µg/mL: soil incorporation 26 ppm, 100=complete kill
# How it was run: as §1
# [9] = tested on: Linseed (Linum usitatissimum); assay: Post-emergence foliar spray, herbicidal/growth regulant response, linseed; conditions: 168 h, foliar spray 11.2 kg/ha, 7 days, 0=no effect, 100=complete kill, read-out: herbicidal or growth regulant response index
# How it was run: as §2
# [10] = tested on: Sugarbeet (Beta vulgaris); assay: Post-emergence foliar spray, herbicidal/growth regulant response, sugarbeet; conditions: 168 h, foliar spray 11.2 kg/ha, 7 days, 0=no effect, 100=complete kill, read-out: herbicidal or growth regulant response index
# How it was run: as §2
# Barley (Hordeum vulgare) [11] = assay: Post-emergence foliar spray of monocotyledons, barley; conditions: foliar spray 2.8 kg/ha, 14 days, 0=no effect, 100=complete kill
# Description: (§7) Seeds of the monocotyledon species listed below were sown in anodised aluminium pans, 19 cm long×9.5 cm wide×5.0 cm deep, containing John Innes I potting compost. They were then watered and placed in a controlled environment room (22° C.; 65-85% relative humidity; 14 hours per day artificial illumination at 17,000 lux). 14 days after sowing, the seedlings were given a foliar spray of the compound of Example 44, formulated as an aqueous suspension together with 2000 ppm of the wetting agent Lissapol NX. The dosage rate was adjusted to be 2.8 kg active ingredient in 450 liters per hectare. After a further 14 days in the controlled environment room, the plants were visually assessed for any growth regulatory or herbicidal effect. All differences from an untreated control were scored on a scale from 0-100 where 0 signifies no effect and 100 signifies complete kill.
# (§8) The compounds listed below were tested according to the procedure of Example 66 but including rice (Oryza sativa) as an additional test species.
# Rice (Orysae sotiva) = assay: Pre-emergence soil surface spray, rice; conditions: soil surface spray 2.8 kg/ha, 21 days, 0=no effect, 100=complete kill
# Description: (§9) Seeds of the plant species listed below were sown in John Innes I potting compost in aluminium pans, 19 cm long×9.5 cm wide×5.0 cm high, one species per pan. The soil surface was then sprayed with a compound listed below, formulated as a solution in 1:1 by volume aqueous acetone except for the compound of Example 44 which was formulated as an aqueous suspension containing 1000 parts per million of the wetting agent Lissapol NX (nonylphenol/ethylene oxide condensate). Each compound was applied at a rate of 2.8 kg of active ingredient per hectare in 450 liters of spray liquid per hectare. The pans were then watered, and placed in a controlled environment room (22° C., relative humidity 65-85%, 14 hours per day artificial illumination at 17,000 lux) for 21 days. The plants were then visually assessed for any growth regulatory or herbicidal effects. All differences from an untreated control were scored on a scale from 0-100, where 0 signifies no effect and 100 signifies complete kill.
# [12] = tested on: Wheat (Triticum aestivum); assay: Pre-emergence soil surface spray, wheat; conditions: soil surface spray 2.8 kg/ha, 21 days, 0=no effect, 100=complete kill
# Description: as §9
# [13] = tested on: Wheat (Triticum aestivum); assay: Post-emergence foliar spray of monocotyledons, wheat; conditions: foliar spray 2.8 kg/ha, 14 days, 0=no effect, 100=complete kill
# Description: as §7, §8
# [14] = tested on: Barnyardgrass (Echinochloa crus-galli); assay: Post-emergence foliar spray of monocotyledons, barnyardgrass; conditions: foliar spray 2.8 kg/ha, 14 days, 0=no effect, 100=complete kill
# Description: as §7, §8
# [15] = tested on: Barnyardgrass (Echinochloa crus-galli); assay: Pre-emergence soil surface spray, barnyardgrass; conditions: soil surface spray 2.8 kg/ha, 21 days, 0=no effect, 100=complete kill
# Description: as §9
# Barley (Hordeum vulgare) [16] = assay: Pre-emergence soil surface spray, barley; conditions: soil surface spray 2.8 kg/ha, 21 days, 0=no effect, 100=complete kill
# Description: as §9
# [17] = tested on: Crabgrass (Digitaria sanguinalis); assay: Pre-emergence soil surface spray, crabgrass; conditions: soil surface spray 2.8 kg/ha, 21 days, 0=no effect, 100=complete kill
# Description: as §9
# [18] = tested on: Blackgrass (Alopecurus myosuroides); assay: Pre-emergence soil surface spray, blackgrass; conditions: soil surface spray 2.8 kg/ha, 21 days, 0=no effect, 100=complete kill
# Description: as §9
# Wild Oat (Avena fatua) = assay: Pre-emergence soil surface spray, wild oat; conditions: soil surface spray 2.8 kg/ha, 21 days, 0=no effect, 100=complete kill
# Description: as §9
# [19] = soil incorporation 130 ppm, 100=complete kill/suppression
structure (smiles),measurement,setting,value
CCOC(=O)C(CC)N(c1c(C)cccc1C)S(C)(=O)=O (centres unmarked) [Example 95],pest or weed control at 26 µg/mL,[1],90%
same,pest or weed control at 130 µg/mL,[1]; [19],100%
same,pest or weed control at 26 µg/mL,Peas (Pisum sativum) [2],20%
same,pest or weed control at 130 µg/mL,Peas (Pisum sativum) [2]; [19],30%
same,pest or weed control at 11200 g/ha,Peas (Pisum sativum) [3],15%
same,growth regulatory or herbicidal effect score,Fathen,100
same,pest or weed control at 11200 g/ha,Mustard (Sinapis alba) [4],100%
same,plant injury at 11200 g/ha,Oat (Avena sativa),20%
same,growth regulatory or herbicidal effect score,Chickweed,90
same,plant injury at 26 µg/mL,Oats (Avena sativa),0%
same,plant injury at 130 µg/mL,Oats (Avena sativa); [19],100%
same,pest or weed control at 11200 g/ha,[5],15%
same,growth regulatory or herbicidal effect score,Mustard,50
same,pest or weed control at 26 µg/mL,[6],0%
same,pest or weed control at 130 µg/mL,[6]; [19],80%
same,herbicidal or growth regulant response index,[7],100
same,growth regulatory or herbicidal effect score,Tomato,90
same,growth regulatory or herbicidal effect score,Carrot,0
same,plant injury at 26 µg/mL,Maize (Zea mays),50%
same,plant injury at 130 µg/mL,Maize (Zea mays); [19],100%
same,growth regulatory or herbicidal effect score,Cotton,5
same,pest or weed control at 26 µg/mL,Mustard (Sinapis alba) [8],90%
same,pest or weed control at 130 µg/mL,Mustard (Sinapis alba) [8]; [19],100%
same,pest or weed control at 11200 g/ha,[9],25%
same,plant injury at 11200 g/ha,[10],100%
"CS(=O)(=O)N(CC#N)c1ccc(Cl)c(Cl)c1 [Example 44, N-cyanomethyl-3,4-dichloro-methanesulphonanilide]",growth regulatory or herbicidal effect score,Barley (Hordeum vulgare) [11],0
same,pest or weed control at 26 µg/mL,[1],5%
same,pest or weed control at 26 µg/mL,Peas (Pisum sativum) [2],0%
same,growth regulatory or herbicidal effect score,Rice (Orysae sotiva),0
same,plant injury at 26 µg/mL,Oats (Avena sativa),60%
same,growth regulatory or herbicidal effect score,[12],0
same,growth regulatory or herbicidal effect score,[13],0
same,pest or weed control at 26 µg/mL,[6],20%
same,growth regulatory or herbicidal effect score,[14],100
same,growth regulatory or herbicidal effect score,[15],80
same,growth regulatory or herbicidal effect score,Barley (Hordeum vulgare) [16],0
same,plant injury at 26 µg/mL,Maize (Zea mays),5%
same,growth regulatory or herbicidal effect score,[17],0
same,pest or weed control at 26 µg/mL,Mustard (Sinapis alba) [8],40%
same,growth regulatory or herbicidal effect score,[18],0
same,growth regulatory or herbicidal effect score,Wild Oat (Avena fatua),0
